Assay results reported in US6184422A, “Cyclohexanediol derivatives” (priority 1998, dated 2001).

Experiments:
[1] = test system: epidermal proliferation in minipigs; assay: animal or person; conditions: for minimal effective dose: Sus scrofa, 168 h, read-out: Effective dose (dose that increases the normal LI at least 50%); for minimal effective dose / Calcemic dose: po; for Calcemic dose: minipig, in vivo, 10080 min; for TI (ratio Calc./Eff.): oral, calcemic dose / effective dose
Procedure: Orally administered vitamin D analogs can lead to epidermal proliferation in minipigs. This skin effect is considered as indicative for an antipsoriatic potential of vitamin D analogs. […] The pigs were daily observed as to adverse effects such as behavior, mobility, stool. At day seven bromodeoxyuridine (4 mg/kg) was injected intravenously into the treated pigs and 2 hours later skin biopsies (6 mm diameter) and blood were taken for analysis. The skin biopsies were fixed in formalin, and paraffin sections were prepared using standard procedures. Using standard immuno-histochemical techniques, cells in the S-phase (DNA synthesis phase) were labelled by the binding of a specific monoclonal antibody against the thymidine analogue bromodeoxyuridine. The number of labelled epidermal cells per unit of length along the surface was taken as a measure of epidermal proliferative activity (labelings index LI). Clinical chemistry was performed using Cobas Mira.
*The effective dose is the dose that increases the normal LI at least 50%

[2] = Calcium Liability (Tolerance Test in Mice); conditions: for MTD: mouse, in vivo, sc; for HTD/VDR: ratio HTDsc mouse (μg/kg) / VDR act ED50 (nanomolar)
From the text: 1. Calcium Liability (Tolerance Test in Mice)
This test gives a global picture of calcemic liability. Profound changes in calcium homeostasis strongly affect the weight development of the animals. This parameter was used as a primary test for tolerance. […] Body weight was registered just before and at the end of a 5 day treatment period.

human VDR = molecular target: T1, human VDR (Homo sapiens, UniProt P11473); assay: VDR Activation (transcription activation assay in COS cells, luciferase reporter); assay type: cell-based; conditions: COS cells cotransfected with human VDR and VDRE3/luciferase reporter; read-out: VDR act (ED50, nanomolar)
T1 construct: expressed in transfected cells; host or cells: COS cells, expression vector pSG5
T1 sequence (P11473 1-427): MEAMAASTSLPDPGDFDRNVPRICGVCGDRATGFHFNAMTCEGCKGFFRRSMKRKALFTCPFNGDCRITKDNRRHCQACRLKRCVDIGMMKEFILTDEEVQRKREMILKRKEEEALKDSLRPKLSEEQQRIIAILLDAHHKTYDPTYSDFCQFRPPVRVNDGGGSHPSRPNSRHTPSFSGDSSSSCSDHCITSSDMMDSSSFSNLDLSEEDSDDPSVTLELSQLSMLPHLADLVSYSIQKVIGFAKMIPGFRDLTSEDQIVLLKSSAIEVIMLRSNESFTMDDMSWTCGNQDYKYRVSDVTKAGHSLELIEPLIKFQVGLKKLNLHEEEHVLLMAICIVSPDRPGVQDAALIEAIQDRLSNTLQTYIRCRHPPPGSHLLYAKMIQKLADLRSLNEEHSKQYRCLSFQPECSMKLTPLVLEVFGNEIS
From the text: In order to measure the activation of the vitamin D receptor (VDR) by vitamin D analogs in cells a transcription activation assay was used. COS cells were cotransfected with the human VDR (expressed in pSG5) and a reporter gene containing three response elements (VDRE3) from the rat osteocalcine gene, the thymidine kinase basal promoter, and the luciferase reporter gene, respectively.

[3] = test system: epidermal thickening (acanthosis) in hairless mice; assay: The Mouse Model: epidermal thickening (acanthosis) in hairless mice; conditions: for ED50: Mus musculus, po, read-out: ED50: dose causing half-maximal epidermal thickening; for ratio (TI) HTD/ED50: HTDpo/ED50
[4] = as above; conditions: mouse, in vivo, po
in vivo = conditions: mouse, po

SMILES | minimal effective dose [1] [mg/kg] | Calcemic dose [1] [mg/kg] | TI (ratio Calc./Eff.) ([1]; minipigs) | MTD [2] [mg/kg] | HTD/VDR [2] | EC50 (human VDR) [nM] | ED50 [3] [mg/kg] | ratio (TI) HTD/ED50 ([3]; hairless mice, oral) | MTD [4] [mg/kg] | epidermal hyperproliferation (in words) ([1]; minipigs, even at 9 times the dose that induces hypercalcemia) | skin effects at the highest tolerated dose (in words) ([3]; hairless mice, oral, calcitriol animals treated for three days) | MTD (in vivo) [mg/kg]
CC(C)(C/C=C\C(O)(C(F)(F)F)C(F)(F)F)CCC/C=C/C=C1C[C@@H](O)C[C@H](O)C1 [A, (1R,3R)-5-[(2E,9Z)-12,12,12-trifluoro-11-hydroxy-7,7-dimethyl-11-trifluoromethyl-dodeca-2,9-dienylidene)-cyclohexane-1,3-diol] | 0.1 | 5 | 50 | 2.5 | 14 | 180 | 7.5 | 0.13 | 1 | – | – | –
C=C1/C(=C\C=C\CCCC(C)(C)C/C=C\C(O)(C(F)(F)F)C(F)(F)F)C[C@@H](O)C[C@@H]1O [B, (Z)-(1R,3S)-4-methylene-5-[(2E,9Z)-12,12,12-trifluoro-11-hydroxy-7,7-dimethyl-11-trifluoromethyl-dodeca-2,9-dienylidene]-cyclohexane-1,3-diol] | 1 | 2 | 2 | 3 | 60 | 50 | 3 | 0.13 | 0.4 | – | – | –
C=C1/C(=C\C=C\CCCC(C)(C)C/C=C/C(O)(C(F)(F)F)C(F)(F)F)C[C@@H](O)C[C@@H]1O [C, (Z)-(1R,3S)-5-((2E,9E)-12,12,12-trifluoro-11-trifluoromethyl-11-hydroxy-7,7-dimethyl-dodec-2,9-dienylidene)-4-methylene-cyclohexane-1,3-diol] | – | – | – | 0.2 | 50 | 4 | 0.45 | 0.13 | 0.06 | – | – | –
C=C1/C(=C\C=C2/CCC[C@]3(C)[C@@H]([C@H](C)CCCC(C)(C)O)CC[C@@H]23)C[C@@H](O)C[C@@H]1O [Calcitriol, reference compound] | > 0.0225 | 0.003 | – | – | – | – | 0.5 | – | – | did not induce hyperproliferation | not able to elicit skin effects | –
CC(C)(CCC/C=C/C=C1C[C@@H](O)C[C@H](O)C1)CCCC(O)(C(F)(F)F)C(F)(F)F [Compound E, (1R,3R)-5-[(2E)-12,12,12-trifluoro-11-hydroxy-7,7-dimethyl-11-trifluoromethyl-dodec-2-enylidene)-cyclohexane-1,3-diol] | – | – | – | 0.1 | 15 | 6.6 | 0.2 | 0.2 | 0.04 | – | – | –
CC(C)(C/C=C/C(O)(C(F)(F)F)C(F)(F)F)CCC/C=C/C=C1C[C@@H](O)C[C@H](O)C1 [D, (1R,3R)-5-[(2E,9E)-12,12,12-trifluoro-11-trifluoromethyl-11-hydroxy-7,7-dimethyl-dodeca-2,9-dienylidene]-cyclohexane-1,3-diol] | – | – | – | 0.1 | 18 | 5.7 | 0.5 | 0.1 | 0.05 | – | – | –
C=C1/C(=C\C=C\CCCC(C)(C)CCCC(O)(C(F)(F)F)C(F)(F)F)C[C@@H](O)C[C@@H]1O [F, (Z)-(1R,3S)-5-[(2E)-12,12,12-trifluoro-11-hydroxy-7,7-dimethyl-11-trifluoromethyl-dodec-2-enylidene]-4-methylene-cyclohexane-1,3-diol] | 0.003 | 0.015 | 5 | 0.08 | 20 | 4 | 0.2 | 0.4 | 0.08 | – | – | –
C=C1/C(=C\C=C\CCCC(C)(C)CCCC(C)(C)O)C[C@@H](O)C[C@@H]1O [G, (Z)-(1R,3S)-5-[(E)-11-hydroxy-7,7,11-trimethyl-dodec-2-enylidene]-4-methylene-cyclohexane-1,3-diol] | – | – | – | > 5 | 45 | 110 | 60 | 0.33 | – | – | – | 20
CC(C)(O)CCCC(C)(C)CCC/C=C/C=C1C[C@@H](O)C[C@H](O)C1 [H, (2E)-(1R,3R)-5-(11-hydroxy-7,7,11-trimethyl-dodeca-2-enylidene)-cyclohexane-1,3-diol] | – | – | – | > 5 | 18 | 280 | – | – | – | – | – | –
CC(C)(CC#CC(O)(C(F)(F)F)C(F)(F)F)CCC/C=C/C=C1C[C@@H](O)C[C@H](O)C1 [I, (E)-(1R,3R)-5-[12,12,12-trifluoro-11-hydroxy-7,7-dimethyl-11-trifluoromethyl-dodec-2-en-9-ynylidene]-cyclohexane-1,3-diol] | 0.036 | 0.2 | 6 | 0.333 | 26 | 13 | 0.8 | 0.125 | 0.1 | – | – | –
C=C1/C(=C\C=C\CCCC(C)(C)CC#CC(O)(C(F)(F)F)C(F)(F)F)C[C@@H](O)C[C@@H]1O [J, (Z)-(1R,3S)-4-methylene-5-[(E)-12,12,12-trifluoro-11-hydroxy-7,7-dimethyl-11-trifluoromethyl-dodec-2-en-9-ynylidene]-cyclohexane-1,3-diol] | 0.108 | > 0.324 | > 3 | 0.31 | 65 | 4.8 | 0.7 | 0.1 | 0.07 | – | – | –
CC(C)(O)C#CCC(C)(C)CCC/C=C/C=C1C[C@@H](O)C[C@H](O)C1 [K, (10E)-(3R,5R)-12-(3,5-dihydroxy-cyclohexylidene)-6,6-dimethyl-2-methyl-dodec-10-en-3-yn-2-ol] | – | – | – | > 5 | > 23 | 220 | – | – | – | – | – | –
